This is an account of results in publication PMC8151276, “An Integrated Approach toward NanoBRET Tracers for Analysis of GPCR Ligand Engagement” (Molecules, 2021).

What all share (type): binding
One test concerns the target T1, GALR1 (Homo sapiens, UniProt P47211).
T1 construct: purchased Promega (in-house HiBiT-GPCR construct library, NanoBRET)
T1 sequence (P47211 1-349): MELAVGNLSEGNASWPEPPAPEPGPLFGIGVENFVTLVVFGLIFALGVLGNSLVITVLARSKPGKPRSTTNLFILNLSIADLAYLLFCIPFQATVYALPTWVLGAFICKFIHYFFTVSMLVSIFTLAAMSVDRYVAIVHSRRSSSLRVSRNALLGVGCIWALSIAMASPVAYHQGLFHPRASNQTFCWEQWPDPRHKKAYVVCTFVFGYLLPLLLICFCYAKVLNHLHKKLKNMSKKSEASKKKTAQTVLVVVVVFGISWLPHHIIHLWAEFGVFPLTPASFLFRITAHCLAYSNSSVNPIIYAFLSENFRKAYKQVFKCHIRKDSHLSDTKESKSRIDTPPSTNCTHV
The experiment in a line: NanoBRET screen HiBiT-GALR1 in HEK293. As to the method:
(§1) Each tracer candidate was screened across the entire library of HiBiT-GPCR constructs using NanoBRET as the detection modality. As depicted in Figure 4A, the specificity of interactions was evaluated through decrease in BRET due to competitive displacement of a bound tracer by excess parental compound. Each tracer was analyzed for binding to each HiBiT-GPCR fusion in the absence and in the presence of competing parental compound. Briefly, HEK293 cells were transfected with HiBiT-GPCR constructs diluted into promoterless DNA to reduce expression and maximize translocation to the cell surface. Each tracer candidate was then screened at concentrations of 1 μM and 0.1 μM across cells expressing these fusions. Cells were treated for 1.5 h with tracer either alone or in the presence of 20 μM competing parental compound (i.e., control). BRET was measured upon addition of purified LgBiT and subsequent complementation with HiBiT genetically fused to a GPCR. The specificity of interactions was assessed through a decrease in BRET signal due to competitive displacement of the bound tracer. To further gauge the robustness of these interactions, the fold response over the control (i.e., BRETtracer/BRETcontrol) was calculated. We chose a 1.5-fold response, which translates to ≥7-fold signal over noise as the minimal threshold required to score an interaction as positive. […]. Below we highlight the screening results obtained for our exemplary fluorescent tracers based on Clozapine, Amitriptyline and AZD1283.
(§2) HiBiT-GPCR DNA constructs were diluted in 10 mM Tris pH 8 to a final concentration of 0.01 μg/μL, arrayed in 96-well plates and stored at −20 °C. For transfection, HEK293 cells were suspended in Opti-MEM (without phenol red) supplemented with 2% fetal bovine serum (Seradigm) and 100 units/mL penicillin–streptomycin (Gibco) at a final concentration of 220,000 cells/mL and dispensed into white 96-well plates at 90 μL/well. Subsequent transfections and screens were carried using an Agilent Bravo Automated Liquid Handling Platform. First, the 96-well HiBiT DNA arrays were diluted 25-fold in Opti-MEM (without serum or phenol red) to a final concentration of 0.0004 μg/μL and 20 μL of the diluted DNAs were transferred into new 96-well plates. Next, promoterless carrier DNA (1 μg/μL) was diluted 25-fold (0.04 μg/μL) and then dispensed into the diluted arrays at 20 μL/well. Following brief mixing, Viafect transfection reagent (Promega) diluted 16-fold into Opti-MEM was dispensed into the plates at 40 μL/well. After mixing by pipetting, plates were incubated for 10 min on the pipetting station deck. The DNA-transfection reagent complexes were then added to plates containing cells. To facilitate the screen, 10 μL of DNA-transfection reagent complexes were added in duplicates to the top 4 and bottom 4 rows, resulting in two identical 48-well arrays per plate. Plates with transfected cells were incubated for 18–20 h at 37 °C/5% CO2. A screen of each tracer across the entire library using two different concentrations requires duplicate plates of transfected cells. Depending on the number of tracers being screened, transfections can be scaled up using the same ratios. The next day, for each tracer, four 20× screening solutions in tracer dilution buffer (Promega) were prepared: two duplicates at final concentration of 20 μM and two duplicates at a final concentration of 2 μM. A competing unmodified compound was added to one of each duplicate at a final concentration of 400 μM. The four resulting solutions were diluted 4-fold in Opti-MEM without serum or phenol red to generate 5× solutions (5 µM and 0.5 µM tracer +/− 100 μM competing compound). To screen the library, a BioTek MultiFlo FX liquid dispenser was used to dispense 22.5 µL of tracer solution to the top 4 rows and 22.5 µL tracer + competing compound solution to the 4 bottom rows. Plates were briefly mixed on an orbital shaker and incubated for 1.5 h at room temperature. […]

The next test addresses T2, GRM1 (Homo sapiens, UniProt Q13255).
T2 construct: purchased Promega (in-house HiBiT-GPCR construct library, NanoBRET)
The experiment in a line: NanoBRET screen HiBiT-GRM1 in HEK293. As to the method: as §1, §2
Background: In BRET a luciferase serves as donor, and the signal depends on an acceptor being close.

A further test concerns the target T3, AGTR2 (Homo sapiens, UniProt P50052).
T3 construct: purchased Promega (in-house HiBiT-GPCR construct library, NanoBRET)
T3 sequence (P50052 1-363): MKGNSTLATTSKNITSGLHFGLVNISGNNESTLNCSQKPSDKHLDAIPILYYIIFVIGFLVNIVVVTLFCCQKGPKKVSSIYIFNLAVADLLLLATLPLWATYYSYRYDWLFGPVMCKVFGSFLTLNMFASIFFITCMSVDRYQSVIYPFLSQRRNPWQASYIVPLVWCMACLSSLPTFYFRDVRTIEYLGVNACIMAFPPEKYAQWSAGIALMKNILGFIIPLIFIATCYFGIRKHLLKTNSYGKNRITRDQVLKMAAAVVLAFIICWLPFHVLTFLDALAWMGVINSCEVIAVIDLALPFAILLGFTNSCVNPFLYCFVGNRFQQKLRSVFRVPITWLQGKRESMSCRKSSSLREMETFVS
The experiment in a line: NanoBRET screen HiBiT-AGTR2 in HEK293. How it is done:
as §1, §2

Another test concerns the target T4, FPR3 (Homo sapiens, UniProt P25089).
T4 construct: purchased Promega (in-house HiBiT-GPCR construct library, NanoBRET)
T4 sequence (P25089 1-353): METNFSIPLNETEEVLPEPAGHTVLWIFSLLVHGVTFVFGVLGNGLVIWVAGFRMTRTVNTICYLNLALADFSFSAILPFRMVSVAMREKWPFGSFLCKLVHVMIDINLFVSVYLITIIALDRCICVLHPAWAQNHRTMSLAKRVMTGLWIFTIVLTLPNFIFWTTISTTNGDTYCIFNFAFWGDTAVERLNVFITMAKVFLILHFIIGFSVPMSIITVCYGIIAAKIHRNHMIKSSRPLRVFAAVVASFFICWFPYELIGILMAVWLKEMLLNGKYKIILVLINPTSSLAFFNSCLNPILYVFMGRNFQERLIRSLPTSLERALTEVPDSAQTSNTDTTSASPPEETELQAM
In words: NanoBRET screen HiBiT-FPR3 in HEK293. As to the method: as §1, §2

The next test has as its target T5, HTR1B (Homo sapiens, UniProt P28222).
T5 construct: purchased Promega (in-house HiBiT-GPCR construct library, NanoBRET)
The experiment in a line: NanoBRET screen HiBiT-HTR1B in HEK293. How it is done:
as §1, §2

T2 sequence (Q13255 19-1194): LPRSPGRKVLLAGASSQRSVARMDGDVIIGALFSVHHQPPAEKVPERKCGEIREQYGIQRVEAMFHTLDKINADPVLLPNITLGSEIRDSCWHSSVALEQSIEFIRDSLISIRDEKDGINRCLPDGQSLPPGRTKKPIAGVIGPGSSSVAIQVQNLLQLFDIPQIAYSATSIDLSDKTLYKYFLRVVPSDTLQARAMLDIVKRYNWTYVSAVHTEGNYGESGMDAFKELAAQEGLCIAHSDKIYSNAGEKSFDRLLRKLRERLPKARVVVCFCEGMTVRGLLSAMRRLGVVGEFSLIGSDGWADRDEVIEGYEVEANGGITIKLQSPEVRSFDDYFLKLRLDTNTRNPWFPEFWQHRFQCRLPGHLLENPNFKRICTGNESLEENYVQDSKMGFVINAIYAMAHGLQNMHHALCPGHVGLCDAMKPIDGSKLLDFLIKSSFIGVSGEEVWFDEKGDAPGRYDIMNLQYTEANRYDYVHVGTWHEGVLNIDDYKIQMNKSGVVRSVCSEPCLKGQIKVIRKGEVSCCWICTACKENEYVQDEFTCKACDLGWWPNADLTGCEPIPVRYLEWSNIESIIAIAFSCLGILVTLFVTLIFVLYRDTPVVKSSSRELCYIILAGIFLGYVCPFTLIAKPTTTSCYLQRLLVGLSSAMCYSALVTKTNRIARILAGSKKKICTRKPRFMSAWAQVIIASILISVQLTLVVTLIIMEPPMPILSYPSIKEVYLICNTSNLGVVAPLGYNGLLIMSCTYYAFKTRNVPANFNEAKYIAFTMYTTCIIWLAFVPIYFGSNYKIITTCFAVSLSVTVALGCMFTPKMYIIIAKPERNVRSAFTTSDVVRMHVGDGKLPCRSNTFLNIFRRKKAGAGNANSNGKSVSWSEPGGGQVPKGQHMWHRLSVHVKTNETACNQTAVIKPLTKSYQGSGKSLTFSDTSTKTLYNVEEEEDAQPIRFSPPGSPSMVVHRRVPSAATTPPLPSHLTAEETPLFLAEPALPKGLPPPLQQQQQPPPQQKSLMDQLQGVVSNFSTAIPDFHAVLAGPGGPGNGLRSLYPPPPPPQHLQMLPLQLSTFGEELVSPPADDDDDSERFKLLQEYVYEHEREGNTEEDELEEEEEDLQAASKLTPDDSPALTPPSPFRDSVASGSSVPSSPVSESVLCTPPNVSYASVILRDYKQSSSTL
T5 sequence (P28222 whole entry): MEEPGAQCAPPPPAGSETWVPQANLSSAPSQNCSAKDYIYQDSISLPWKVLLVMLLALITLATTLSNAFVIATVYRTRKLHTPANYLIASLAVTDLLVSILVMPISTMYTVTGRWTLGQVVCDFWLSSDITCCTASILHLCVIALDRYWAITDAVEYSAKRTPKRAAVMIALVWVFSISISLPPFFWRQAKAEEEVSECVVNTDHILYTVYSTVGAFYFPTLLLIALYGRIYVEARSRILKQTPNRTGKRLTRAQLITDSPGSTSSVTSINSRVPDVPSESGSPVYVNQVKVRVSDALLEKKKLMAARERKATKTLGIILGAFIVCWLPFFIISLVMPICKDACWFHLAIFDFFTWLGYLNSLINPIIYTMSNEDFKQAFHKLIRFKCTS

For `O=C(CCc1ccc2n1[B-](F)(F)[N+]1=C(c3ccc[nH]3)C=CC1=C2)NCc1ccc(C(=O)NCCOCCC(=O)N[C@@H]2CC[C@@]3(O)[C@H]4Cc5ccc(O)c6c5[C@@]3(CCN4CC3CC3)[C@H]2O6)cc1` [Naltrexone-3-NB590], the “NanoBRET Fold Response” value is recorded as 0.99 at GALR1 (GALR1, tracer 0.1μM); 0.89 on GALR1 (GALR1, tracer 1μM); 0.93 at GRM1 (GRM1, tracer 0.1μM); 0.75 on GRM1 (GRM1, tracer 1μM); 1.23 on AGTR2 (AGTR2, tracer 0.1μM); 0.67 at AGTR2 (AGTR2, tracer 1μM). The “NanoBRET Fold Response” value on FPR3 (FPR3, tracer 0.1μM) is 0.82; on FPR3 (FPR3, tracer 1μM), 0.92; at HTR1B (HTR1B, tracer 0.1μM), 1.01; at HTR1B (HTR1B, tracer 1μM) it was 1.33.

Turning to `CC(C)N(CC[C@H](c1ccccc1)c1cc(CCNC(=O)CCOCCOCCOCCOCCNC(=O)CCc2ccc3n2[B-](F)(F)[N+]2=C(c4ccc[nH]4)C=CC2=C3)ccc1O)C(C)C` [Tolterodine-2-NB590], the “NanoBRET Fold Response” value on GALR1 (GALR1, tracer 0.1μM) worked out at 1.04; on GALR1 (GALR1, tracer 1μM), 0.99; on GRM1 (GRM1, tracer 0.1μM) it was 0.94; at GRM1 (GRM1, tracer 1μM), 0.81; on AGTR2 (AGTR2, tracer 0.1μM) it was 1.10; at AGTR2 (AGTR2, tracer 1μM) it was 1.07. The “NanoBRET Fold Response” value on FPR3 (FPR3, tracer 0.1μM) came to 1.60; at FPR3 (FPR3, tracer 1μM) it was 0.92; on HTR1B (HTR1B, tracer 0.1μM), 0.79; at HTR1B (HTR1B, tracer 1μM), 1.12.

As to `Cc1nc2n(c(=O)c1CCN1CCC(c3noc4cc(F)ccc34)CC1)CCCC2OC(=O)NCCOCCOCCOCCOCCNC(=O)CCc1ccc2n1[B-](F)(F)[N+]1=C(c3ccc[nH]3)C=CC1=C2` (stereo not shown) [Risperidone-2-NB590], the “NanoBRET Fold Response” value on GALR1 (GALR1, tracer 0.1μM) worked out at 1.00; on GALR1 (GALR1, tracer 1μM) it was 0.99; at GRM1 (GRM1, tracer 0.1μM), 0.97; on GRM1 (GRM1, tracer 1μM) it was 0.84; at AGTR2 (AGTR2, tracer 0.1μM) it was 1.10; at AGTR2 (AGTR2, tracer 1μM), 0.94. Besides, the “NanoBRET Fold Response” value came to 0.98 at FPR3 (FPR3, tracer 0.1μM); 0.94 on FPR3 (FPR3, tracer 1μM); 3.33 on HTR1B (HTR1B, tracer 0.1μM); 2.70 on HTR1B (HTR1B, tracer 1μM).

Take `O=C(CCOCCOCCOCCOCCNC(=O)CCc1ccc2n1[B-](F)(F)[N+]1=C(c3ccc[nH]3)C=CC1=C2)NCCCN1CCN(C2=Nc3cc(Cl)ccc3Nc3ccccc32)CC1` [Clozapine-a-2-NB590]: the “NanoBRET Fold Response” value on GALR1 (GALR1, 0.1μM tracer) is 1.05; at GALR1 (GALR1, 1μM tracer), 1.09; at GRM1 (GRM1, 0.1μM tracer), 1.42; on GRM1 (GRM1, 1μM tracer), 0.90; on AGTR2 (AGTR2, 0.1μM tracer), 1.02; on AGTR2 (AGTR2, 1μM tracer), 1.03. In addition, the “NanoBRET Fold Response” value on FPR3 (FPR3, 0.1μM tracer) is given as 0.92; on FPR3 (FPR3, 1μM tracer), 1.30; on HTR1B (HTR1B, 0.1μM tracer) it was 4.16; on HTR1B (HTR1B, 1μM tracer) it was 2.29.

Regarding `COc1ccc2[nH]c(-c3ccc(CNC(=O)CCOCCOCCOCCOCCNC(=O)CCc4ccc5n4[B-](F)(F)[N+]4=C(c6ccc[nH]6)C=CC4=C5)cc3)c(CCNC(C)=O)c2n1` [AzomelatoninICO9-2-NB590], the “NanoBRET Fold Response” value is 0.87 at GALR1 (0.1μM tracer); 1.05 on GALR1 (1μM tracer); 0.66 at GRM1 (0.1μM tracer); 1.33 on GRM1 (1μM tracer); 0.88 at AGTR2 (0.1μM tracer); 0.95 at AGTR2 (1μM tracer). The “NanoBRET Fold Response” value at FPR3 (0.1μM tracer) is given as 1.46; at FPR3 (1μM tracer), 1.02; at HTR1B (0.1μM tracer), 0.92; on HTR1B (1μM tracer), 1.13.

`CN1CCN(C2=Nc3cc(Cl)ccc3Nc3ccc(CNC(=O)CCOCCOCCOCCOCCNC(=O)CCc4ccc5n4[B-](F)(F)[N+]4=C(c6ccc[nH]6)C=CC4=C5)cc32)CC1` [Clozapine-b-2-NB590]: the “NanoBRET Fold Response” value on GALR1 (GALR1, 0.1μM tracer) is reported as 0.99; at GALR1 (GALR1, 1μM tracer) it was 0.99; at GRM1 (GRM1, 0.1μM tracer), 1.05; at GRM1 (GRM1, 1μM tracer), 0.74; on AGTR2 (AGTR2, 0.1μM tracer), 1.03; at AGTR2 (AGTR2, 1μM tracer), 0.95. Further, the “NanoBRET Fold Response” value at FPR3 (FPR3, 0.1μM tracer) worked out at 1.06; at FPR3 (FPR3, 1μM tracer), 1.23; at HTR1B (HTR1B, 0.1μM tracer), 2.07; on HTR1B (HTR1B, 1μM tracer), 2.97.

As to `COc1ccccc1N1CCN(CCCCN2C(=O)c3ccc(CNC(=O)CCOCCNC(=O)c4ccc(CNC(=O)CCc5ccc6n5[B-](F)(F)[N+]5=C(c7ccc[nH]7)C=CC5=C6)cc4)cc3C2=O)CC1` [NAN-190-3-NB590], the “NanoBRET Fold Response” value at GALR1 (GALR1, tracer 0.1μM) was determined as 1.09; on GALR1 (GALR1, tracer 1μM) it was 0.99; on GRM1 (GRM1, tracer 0.1μM), 1.03; on GRM1 (GRM1, tracer 1μM), 1.12; at AGTR2 (AGTR2, tracer 0.1μM) it was 0.99; on AGTR2 (AGTR2, tracer 1μM), 0.90. Further, the “NanoBRET Fold Response” value on FPR3 (FPR3, tracer 0.1μM) is 1.28; at FPR3 (FPR3, tracer 1μM) it was 0.99; on HTR1B (HTR1B, tracer 0.1μM), 1.38; at HTR1B (HTR1B, tracer 1μM), 1.42.
